Source: patent US20240261367A1, “CYCLIC PEPTIDE IMMUNOMODULATORS” (priority 2021, published 2024)

Target: T1, PD-1/PD-L1 (Homo sapiens, UniProt Q9NZQ7)
T1 construct: TVMV protease site linker (C); made in house; host or cells: HEK293T cells
Assay: PD-1/PD-L1 Homogenous Time-Resolved Fluorescence (HTRF) binding assay
Source text: Methods for Testing the Ability of Macrocyclic Peptides to Compete for the Binding of PD-1 to PD-L1 Using Homogenous Time-Resolved Fluorescence (HTRF) Binding Assays
The ability of the compounds of formula (I) to bind to PD-L1 was investigated using a PD-1/PD-L1 Homogenous Time-Resolved Fluorescence (HTRF) binding assay.
Homogenous Time-Resolved Fluorescence (HTRF) Binding Assay
The interaction of PD-1 and PD-L1 can be assessed using soluble, purified preparations of the extracellular domains of the two proteins. The PD-1 and PD-L1 protein extracellular domains were expressed as fusion proteins with detection tags, for PD-1, the tag was the Fc portion of Immunoglobulin (PD-1-Ig) and for PD-L1 it was the 6 histidine motif (PD-L1-His). All binding studies were performed in an HTRF assay buffer consisting of dPBS supplemented with 0.1% […] bovine serum albumin and 0.05% (v/v) Tween-20. […] HTRF detection was achieved using europium crypate-labeled anti-Ig (1 nM final) and allophycocyanin (APC) labeled anti-His (20 nM final). Antibodies were diluted in HTRF detection buffer and 5 μl was dispensed on top of the binding reaction. The reaction mixture was allowed to equilibrate for 30 minutes and the resulting signal (665 nm/620 nm ratio) was obtained using an EnVision fluorometer. Additional binding assays were established between the human proteins PD-1-Ig/PD-L2-His (20 & 5 nM, respectively) and CD80-His/PD-L1-Ig (100 & 10 nM, respectively).
Recombinant Proteins: Human PD-1 (25-167) with a C-terminal human Fc domain of immunoglobulin G (Ig) epitope tag [hPD-1 (25-167)-3S-IG] and human PD-L1 (18-239) with a C-terminal His epitope tag [hPD-L1(18-239)-TVMV-His] were expressed in HEK293T cells and purified sequentially by ProteinA affinity chromatography and size exclusion chromatography. Human PD-L2-His and CD80-His was obtained through commercial sources.
Table 1 lists the IC50 values for representative examples of this disclosure measured in the PD-1/PD-L1 Homogenous Time-Resolved Fluorescence (HTRF) binding assay.

[1] = PD-L1-His (10 nM) pre-incubated with inhibitor 15 m, then PD-1-Ig (20 nM)

T1 sequence (Q9NZQ7 18-239): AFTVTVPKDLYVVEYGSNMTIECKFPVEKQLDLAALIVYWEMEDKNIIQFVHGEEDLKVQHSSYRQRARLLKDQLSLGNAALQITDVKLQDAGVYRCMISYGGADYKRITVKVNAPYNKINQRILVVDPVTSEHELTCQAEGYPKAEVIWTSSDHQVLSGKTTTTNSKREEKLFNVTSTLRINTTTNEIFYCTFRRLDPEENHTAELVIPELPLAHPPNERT

Row | SMILES | IC50 (10 min incubation) [nM] | IC50 [1] [nM]
1 | CCCC[C@H]1C(=O)N(C)[C@@H](CCCC)C(=O)N[C@@H](CC(C)C)C(=O)N[C@H](C(=O)NCC(=O)N[C@@H](Cc2cn(CCOCCOCCOCCOCCOCCOCCOCCOCCOCCOCCOCCNC(=O)CC[C@H](NC(=O)CCCCCCCCCCCCCCCCC(=O)O)C(=O)O)nn2)C(=O)O)CSCC(=O)N[C@@H](Cc2ccc(O)cc2)C(=O)N(C)[C@@H](C)C(=O)N[C@@H](CC(N)=O)C(=O)N2CCC[C@H]2C(=O)N[C@@H](CNC(=O)CC[C@@H](C)[C@H]2CC[C@H]3[C@@H]4[C@H](O)C[C@@H]5C[C@H](O)CC[C@]5(C)[C@H]4C[C@H](O)[C@]23C)C(=O)N[C@@H](CC(C)C)C(=O)N2C[C@H](O)C[C@H]2C(=O)N[C@@H](Cc2c[nH]c3ccccc23)C(=O)N[C@@H](CCN)C(=O)N[C@@H](Cc2cn(CC(=O)O)c3ccccc23)C(=O)N1C [Example 1006] | 28 | –
2 | CCCC[C@H]1C(=O)N(C)[C@@H](CCCC)C(=O)N[C@@H](CC(C)C)C(=O)N[C@H](C(=O)NCC(=O)N[C@@H](Cc2cn(CCOCCOCCOCCOCCOCCOCCOCCOCCOCCOCCOCCNC(=O)CC[C@H](NC(=O)CCCCCCCCCCCCCCCCC(=O)O)C(=O)O)nn2)C(=O)O)CSCC(=O)N[C@@H](Cc2ccc(O)cc2)C(=O)N(C)[C@@H](C)C(=O)N[C@@H](CC(N)=O)C(=O)N2CCC[C@H]2C(=O)N[C@@H](CNC(=O)OC)C(=O)N[C@@H](CC(C)C)C(=O)N2C[C@H](O)C[C@H]2C(=O)N[C@@H](Cc2c[nH]c3ccccc23)C(=O)N[C@@H](CCNC(=O)OCC)C(=O)N[C@@H](Cc2cn(CC(=O)O)c3ccccc23)C(=O)N1C [Example 7012] | – | 8
3 | CCCC[C@H]1C(=O)N(C)[C@@H](CCCC)C(=O)N[C@@H](CC(C)C)C(=O)N[C@H](C(=O)NCC(=O)N[C@@H](Cc2cn(CCOCCOCCOCCOCCOCCOCCOCCOCCOCCOCCOCCNC(=O)CC[C@H](NC(=O)CCCCCCCCCCCCCCCCC(=O)O)C(=O)O)nn2)C(=O)O)CSCC(=O)N[C@@H](Cc2ccc(O)cc2)C(=O)N(C)[C@@H](C)C(=O)N[C@@H](CC(N)=O)C(=O)N2CCC[C@H]2C(=O)N[C@@H](CNC(=O)OCC(C)C)C(=O)N[C@@H](CC(C)C)C(=O)N2C[C@H](O)C[C@H]2C(=O)N[C@@H](Cc2c[nH]c3ccccc23)C(=O)N[C@@H](CCN)C(=O)N[C@@H](CC2=CC(CC(=O)O)c3ccccc32)C(=O)N1C (stereo partly shown) [Example 1014] | – | 3.1
4 | CCCC[C@H]1C(=O)N(C)[C@@H](CCCC)C(=O)N[C@@H](CC(C)C)C(=O)N[C@H](C(=O)NCC(=O)N[C@@H](Cc2cn(CCOCCOCCOCCOCCOCCOCCOCCOCCOCCOCCOCCNC(=O)CC[C@H](NC(=O)CCCCCCCCCCCCCCCCC(=O)O)C(=O)O)nn2)C(=O)OC)CSCC(=O)N[C@@H](Cc2ccc(O)cc2)C(=O)N(C)[C@@H](C)C(=O)N[C@@H](CC(N)=O)C(=O)N2CCC[C@H]2C(=O)N[C@@H](CN)C(=O)N[C@@H](CC(C)C)C(=O)N2C[C@H](O)C[C@H]2C(=O)N[C@@H](Cc2c[nH]c3ccccc23)C(=O)N[C@@H](CCN)C(=O)N[C@@H](Cc2cn(CC(=O)OC)c3ccccc23)C(=O)N1C [Example 3001] | – | 10
5 | CCCC[C@H]1C(=O)N(C)[C@@H](CCCC)C(=O)N[C@@H](CC(C)C)C(=O)N[C@H](C(=O)NCC(=O)N[C@@H](Cc2cn(CCOCCOCCOCCOCCOCCOCCOCCOCCOCCOCCOCCNC(=O)CC[C@H](NC(=O)CCCCCCCCCCCCCCCCC(=O)OC)C(=O)OC)nn2)C(=O)OC)CSCC(=O)N[C@@H](Cc2ccc(O)cc2)C(=O)N(C)[C@@H](C)C(=O)N[C@@H](CC(N)=O)C(=O)N2CCC[C@H]2C(=O)N[C@@H](CNC(=O)OC(C)(C)C)C(=O)N[C@@H](CC(C)C)C(=O)N2C[C@H](O)C[C@H]2C(=O)N[C@@H](Cc2c[nH]c3ccccc23)C(=O)N[C@@H](CCNC(=O)OC(C)(C)C)C(=O)N[C@@H](Cc2cn(CC(=O)OC)c3ccccc23)C(=O)N1C [Example 2001] | – | 170
6 | CCCC[C@H]1C(=O)N(C)[C@@H](CCCC)C(=O)N[C@@H](CC(C)C)C(=O)N[C@H](C(=O)NCC(=O)N[C@@H](Cc2cn(CCOCCOCCOCCOCCOCCOCCOCCOCCOCCOCCOCCNC(=O)CC[C@H](NC(=O)CCCCCCCCCCCCCCCCC(=O)O)C(=O)O)nn2)C(=O)O)CSCC(=O)N[C@@H](Cc2ccc(O)cc2)C(=O)N(C)[C@@H](C)C(=O)N[C@@H](CC(N)=O)C(=O)N2CCC[C@H]2C(=O)N[C@@H](CNC(=O)OCC)C(=O)N[C@@H](CC(C)C)C(=O)N2C[C@H](O)C[C@H]2C(=O)N[C@@H](Cc2c[nH]c3ccccc23)C(=O)N[C@@H](CCNC(=O)OCc2oc(=O)oc2C)C(=O)N[C@@H](Cc2cn(CC(=O)O)c3ccccc23)C(=O)N1C [Example 7014] | – | 8.6
7 | CCCC[C@H]1C(=O)N(C)[C@@H](CCCC)C(=O)N[C@@H](CC(C)C)C(=O)N[C@H](C(=O)NCC(=O)N[C@@H](Cc2cn(CCOCCOCCOCCOCCOCCOCCOCCOCCOCCOCCOCCNC(=O)CC[C@H](NC(=O)CCCCCCCCCCCCCCCCC(=O)O)C(=O)O)nn2)C(=O)O)CSCC(=O)N[C@@H](Cc2ccc(O)cc2)C(=O)N(C)[C@@H](C)C(=O)N[C@@H](CC(N)=O)C(=O)N2CCC[C@H]2C(=O)N[C@@H](CNC(=O)OCc2oc(=O)oc2C)C(=O)N[C@@H](CC(C)C)C(=O)N2C[C@H](O)C[C@H]2C(=O)N[C@@H](Cc2c[nH]c3ccccc23)C(=O)N[C@@H](CCN)C(=O)N[C@@H](CC2=CC(CC(=O)O)c3ccccc32)C(=O)N1C (stereo partly shown) [Example 1021] | – | 27
8 | CCCC[C@H]1C(=O)N(C)[C@@H](CCCC)C(=O)N[C@@H](CC(C)C)C(=O)N[C@H](C(=O)NCC(=O)N[C@@H](Cc2cn(CCOCCOCCOCCOCCOCCOCCOCCOCCOCCOCCOCCNC(=O)CC[C@H](NC(=O)CCCCCCCCCCCCCCCCC(=O)O)C(=O)O)nn2)C(=O)O)CSCC(=O)N[C@@H](Cc2ccc(O)cc2)C(=O)N(C)[C@@H](C)C(=O)N[C@@H](CC(N)=O)C(=O)N2CCC[C@H]2C(=O)N[C@@H](CNC(=O)OC(C)(C)C)C(=O)N[C@@H](CC(C)C)C(=O)N2C[C@H](O)C[C@H]2C(=O)N[C@@H](Cc2c[nH]c3ccccc23)C(=O)N[C@@H](CCNC(=O)OC(C)(C)C)C(=O)N[C@@H](Cc2cn(CC(=O)O)c3ccccc23)C(=O)N1C [Example 1002] | – | 6.5
9 | CCCC[C@H]1C(=O)N(C)[C@@H](CCCC)C(=O)N[C@@H](CC(C)C)C(=O)N[C@H](C(=O)NCC(=O)N[C@@H](Cc2cn(CCOCCOCCOCCOCCOCCOCCOCCOCCOCCOCCOCCNC(=O)CC[C@H](NC(=O)CCCCCCCCCCCCCCCCC(=O)O)C(=O)O)nn2)C(=O)OC)CSCC(=O)N[C@@H](Cc2ccc(O)cc2)C(=O)N(C)[C@@H](C)C(=O)N[C@@H](CC(N)=O)C(=O)N2CCC[C@H]2C(=O)N[C@@H](CN)C(=O)N[C@@H](CC(C)C)C(=O)N2C[C@H](O)C[C@H]2C(=O)N[C@@H](Cc2c[nH]c3ccccc23)C(=O)N[C@@H](CCN)C(=O)N[C@@H](Cc2cn(CC(=O)O)c3ccccc23)C(=O)N1C [Example 6003] | – | 5.5
10 | CCCC[C@H]1C(=O)N(C)[C@@H](CCCC)C(=O)N[C@@H](CC(C)C)C(=O)N[C@H](C(=O)NCC(=O)N[C@@H](Cc2cn(CCOCCOCCOCCOCCOCCOCCOCCOCCOCCOCCOCCNC(=O)CC[C@H](NC(=O)CCCCCCCCCCCCCCCCC(=O)OC)C(=O)O)nn2)C(=O)O)CSCC(=O)N[C@@H](Cc2ccc(O)cc2)C(=O)N(C)[C@@H](C)C(=O)N[C@@H](CC(N)=O)C(=O)N2CCC[C@H]2C(=O)N[C@@H](CNC(=O)OCC)C(=O)N[C@@H](CC(C)C)C(=O)N2C[C@H](O)C[C@H]2C(=O)N[C@@H](Cc2c[nH]c3ccccc23)C(=O)N[C@@H](CCN)C(=O)N[C@@H](Cc2cn(CC(=O)O)c3ccccc23)C(=O)N1C [Example 7001] | – | 53
